# Test results from paper PMC9965906, “Discovery and Development Strategies for SARS-CoV-2 NSP3 Macrodomain Inhibitors” (Pathogens, 2023).
# Several values for one entry are separate records, joined by “and”; a condition that tells them apart may be missing. Identical values can stand only once. Like-named read-outs stand apart in the source and are kept apart here.
# Target: SARS-CoV-2 NSP3 Mac1 (Severe acute respiratory syndrome coronavirus 2, UniProt P0DTD1)
# Experiment: biochemical
# Assay type: binding
# Conditions: for inhibition at 125 µM: read-out: Inhibition at top concentration of 125 µM (%); for IC50 in µM / IC50: top concentration 125 µM, 8-point 1:1 dilution, duplicate; for IC50: read-out: IC50; for inhibition at 25 µM: MIDAS compound library primary screen
# [1] = MIDAS hit compounds and analogues, 125 µM
# [2] = MIDAS hit compounds and analogues
Compound,inhibition at 125 µM [1] [%],IC50 in µM [2],further results
"CC(C)n1ncc2c(C(=O)N3CCCC(C)(O)C3)cc(-c3cccs3)nc21 (stereo not shown) [IAL-MD0086, CC(C)N1N=CC=2C(=CC(=NC12)C3=CC=CS3)C(=O)N4CCCC(C)(O)C4]",47.7,Not measurable,–
"CC1CN(C(=O)c2cc(-c3cccs3)nc3c2cnn3C(C)C)C(C)(C)CO1 (stereo not shown) [IAL-MD0087, CC(C)N1N=CC=2C(=CC(=NC12)C3=CC=CS3)C(=O)N4CC(C)OCC4(C)C]",22.3,Not measurable,–
"COc1ccc(-c2cc(C(=O)N(C)C)c3ccccc3n2)cc1 [IAL-MD0088, COC=1C=CC(=CC1)C=2C=C(C(=O)N(C)C)C=3C=CC=CC3N2]",79.4,–,IC50 [2]: 24 µM
"O=C(O)c1cc(-c2ccc(OC(F)F)cc2)nc2ccccc12 [IAL-MD0089, OC(=O)C=1C=C(N=C2C=CC=CC12)C=3C=CC(OC(F)F)=CC3]",5.7,Not measurable,–
"CC(C)n1ncc2c(C(=O)Nc3ccn(C)n3)cc(-c3cccs3)nc21 [IAL-MD0090, CC(C)N1N=CC=2C(=CC(=NC12)C3=CC=CS3)C(=O)NC=4C=CN(C)N4]",11,Not measurable,–
"CCn1ncc2c(C(=O)NCCNC(C)=O)cc(-c3cccs3)nc21 [IAL-MD0092, CCN1N=CC=2C(=CC(=NC12)C3=CC=CS3)C(=O)NCCNC(=O)C]",17.1,Not measurable,–
"CCCN(CC(=O)Nc1ccccc1C)C(=O)c1cc(-c2cccs2)nc2c1cnn2CC [IAL-MD0093, CCCN(CC(=O)NC=1C=CC=CC1C)C(=O)C=2C=C(N=C3N(CC)N=CC23)C4=CC=CS4]",7.7,Not measurable,–
"COc1ccc(-c2cc(C(=O)O)c3ccccc3n2)cc1OC [IAL-MD0094, COC=1C=CC(=CC1OC)C=2C=C(C(=O)O)C=3C=CC=CC3N2]",31.9,Not measurable,–
"CC(C#N)NC(=O)c1cc(-c2cccs2)nc2c1cnn2C(C)C (stereo not shown) [IAL-MD0095, CC(C)N1N=CC=2C(=CC(=NC12)C3=CC=CS3)C(=O)NC(C)C#N]",19.8,Not measurable,–
"CCn1ncc2c(C(=O)N3CCCC(C)C3)cc(-c3ccccc3)nc21 (stereo not shown) [IAL-MD0096, CCN1N=CC=2C(=CC(=NC12)C=3C=CC=CC3)C(=O)N4CCCC(C)C4]",3.9,Not measurable,–
"CCn1ncc2c(C(=O)Nc3ccc(C(N)=O)cc3)cc(-c3cccs3)nc21 [IAL-MD0097, CCN1N=CC=2C(=CC(=NC12)C3=CC=CS3)C(=O)NC=4C=CC(=CC4)C(=O)N]",7.7,Not measurable,–
"CCCNC(=O)c1cc(-c2ccc(OC)cc2)nc2ccccc12 [IAL-MD0098, CCCNC(=O)C=1C=C(N=C2C=CC=CC12)C=3C=CC(OC)=CC3]",22,Not measurable,–
"COc1ccc(-c2cc(C(=O)NCC(F)(F)F)c3ccccc3n2)cc1 [IAL-MD0099, COC=1C=CC(=CC1)C=2C=C(C(=O)NCC(F)(F)F)C=3C=CC=CC3N2]",22.2,Not measurable,–
"COc1ccc(-c2cc(C(=O)Nc3cccnc3)c3ccccc3n2)cc1 [IAL-MD0100, COC=1C=CC(=CC1)C=2C=C(C(=O)NC=3C=CC=NC3)C=4C=CC=CC4N2]",15.9,Not measurable,–
"COc1ccc(-c2cc(C(=O)Nc3cccc(S(=O)(=O)N(C)C)c3)c3ccccc3n2)cc1 [IAL-MD0101, COC=1C=CC(=CC1)C=2C=C(C(=O)NC=3C=CC=C(C3)S(=O)(=O)N(C)C)C=4C=CC=CC4N2]",25.2,Not measurable,–
"COc1ccc(-c2cc(C(=O)NC3CC3)c3ccccc3n2)cc1 [IAL-MD0103, COC=1C=CC(=CC1)C=2C=C(C(=O)NC3CC3)C=4C=CC=CC4N2]",38.4,Not measurable,–
"CC(C)n1ncc2c(C(=O)N(C)Cc3cccc(O)c3)cc(-c3cccs3)nc21 [IAL-MD0104, CC(C)N1N=CC=2C(=CC(=NC12)C3=CC=CS3)C(=O)N(C)CC=4C=CC=C(O)C4]",18.4,Not measurable,–
"CC(C)n1ncc2c(C(=O)N3CCC(C)(CO)CC3)cc(-c3cccs3)nc21 [IAL-MD0106, CC(C)N1N=CC=2C(=CC(=NC12)C3=CC=CS3)C(=O)N4CCC(C)(CO)CC4]",32.1,Not measurable,–

Compound,inhibition at 125 µM [1] [%],IC50 in µM [2],further results
"CC(C)n1ncc2c(C(=O)N3CCC(C)(O)CC3)cc(-c3cccs3)nc21 [IAL-MD0107, CC(C)N1N=CC=2C(=CC(=NC12)C3=CC=CS3)C(=O)N4CCC(C)(O)CC4]",40.5,Not measurable,–
"CC(CNC(=O)c1cc(-c2cccs2)nc2c1cnn2C(C)C)N1CCCCC1 (stereo not shown) [IAL-MD0108, CC(C)N1N=CC=2C(=CC(=NC12)C3=CC=CS3)C(=O)NCC(C)N4CCCCC4]",60.5,–,IC50 [2]: 68 µM and 67.8 µM
"CCn1ncc2c(C(=O)N(Cc3ccccn3)C(C)C)cc(-c3ccccc3)nc21 [IAL-MD0109, CCN1N=CC=2C(=CC(=NC12)C=3C=CC=CC3)C(=O)N(CC=4C=CC=CN4)C(C)C]",–,Not measurable,Inhibition at top concentration of 125 µM (%) [1]: Not measurable
"O=C(c1ccc(NCC2CC2)nc1)N1CCC(c2c[nH]c3ncccc23)CC1 [IAL-MD0110, O=C(N1CCC(CC1)C2=CNC=3N=CC=CC23)C=4C=CC(NCC5CC5)=NC4]",7.8,Not measurable,–
"CC1(C(=O)N2CCCC(c3c[nH]c4ncccc34)C2)CCC(=O)NC1 (stereo not shown) [IAL-MD0114, CC1(CCC(=O)NC1)C(=O)N2CCCC(C2)C3=CNC=4N=CC=CC34]",13.4,Not measurable,–
"CNC(=O)c1ccc(C(=O)N2CCC(c3c[nH]c4ncccc34)CC2)cn1 [IAL-MD0115, CNC(=O)C=1C=CC(=CN1)C(=O)N2CCC(CC2)C3=CNC=4N=CC=CC34]",9.3,Not measurable,–
"COCCN(CC(N)=O)C(=O)c1cc(-c2cccs2)nc2c1c(C)nn2C [IAL-MD0116, COCCN(CC(=O)N)C(=O)C=1C=C(N=C2N(C)N=C(C)C12)C3=CC=CS3]",55.8,Not measurable,–
"CCn1ncc2c(C(=O)NCc3ccc(OC)nc3)cc(-c3cccs3)nc21 [IAL-MD0117, CCN1N=CC=2C(=CC(=NC12)C3=CC=CS3)C(=O)NCC=4C=CC(OC)=NC4]",9.7,Not measurable,–
"COc1ccc(-c2cc(C(=O)Nc3ccc4ccccc4c3)c3ccccc3n2)cc1 [IAL-MD0118, COC=1C=CC(=CC1)C=2C=C(C(=O)NC=3C=CC=4C=CC=CC4C3)C=5C=CC=CC5N2]",25.6,Not measurable,–
"CCn1ncc2c(C(=O)NC(C)c3ccccn3)cc(-c3cccs3)nc21 (stereo not shown) [IAL-MD0119, CCN1N=CC=2C(=CC(=NC12)C3=CC=CS3)C(=O)NC(C)C=4C=CC=CN4]",6.3,Not measurable,–
"CCn1ncc2c(C(=O)NC(C)c3ccncc3)cc(-c3cccs3)nc21 (stereo not shown) [IAL-MD0120, CCN1N=CC=2C(=CC(=NC12)C3=CC=CS3)C(=O)NC(C)C=4C=CN=CC4]",8.9,Not measurable,–
"Cc1nn(C)c2nc(-c3cccs3)cc(C(=O)NC3CCOCC3)c12 [IAL-MD0121, CC1=NN(C)C=2N=C(C=C(C(=O)NC3CCOCC3)C12)C4=CC=CS4]",17.8,Not measurable,–
"CC(C)n1ncc2c(C(=O)N3CCNC(=O)C3)cc(-c3ccccc3)nc21 [IAL-MD0123, CC(C)N1N=CC=2C(=CC(=NC12)C=3C=CC=CC3)C(=O)N4CCNC(=O)C4]",1.8,Not measurable,–
"Cc1ccc(Cn2ncc3c(C(=O)N4CCNC(=O)C4)cc(C)nc32)cc1 [IAL-MD0124, CC=1C=CC(CN2N=CC=3C(=CC(C)=NC23)C(=O)N4CCNC(=O)C4)=CC1]",–,Not measurable,Inhibition at top concentration of 125 µM (%) [1]: Not measurable
"CCOc1ccc2c(C)c(C(=O)N[C@@H]3CCNC[C@H]3O)oc2c1OCC [IAL-MD0127, O=C(C(O1)=C(C)C2=C1C(OCC)=C(OCC)C=C2)N[C@H]3[C@H](O)CNCC3.[H]Cl]",–,–,inhibition at 25 µM: 40%; IC50 [2]: 38 µM; inhibition at 125 µM: 66.5%
"Cn1ccc2c(-c3ccc(C(=O)N4CCCCC4)cn3)ccnc21 [IAL-MD0128, O=C(C1=CN=C(C2=C3C(N(C)C=C3)=NC=C2)C=C1)N4CCCCC4]",–,–,"inhibition at 25 µM: 58%; Inhibition at top concentration of 125 µM (%) [1]: Not measurable due to compound precipitation; IC50 [2]: ~3.1 µM and 3.1 µM; assay effects in dose-response titration (MIDAS hits and analogues, higher compound concentrations): assay interference effects at higher compound concentrations"
"CN1CCC(Cn2ccnc2-c2ccc(-c3ccccc3C#N)o2)C1 (stereo not shown) [IAL-MD0129, N#CC1=CC=CC=C1C2=CC=C(C3=NC=CN3CC4CN(C)CC4)O2]",–,–,inhibition at 25 µM: 55%; Inhibition at top concentration of 125 µM (%) [1]: Not measurable due to compound precipitation; IC50 [2]: 14.2 µM
"CC(C)NC(=O)c1ccc(-c2ccnc3c2ccn3C)o1 [IAL-MD0130, O=C(NC(C)C)C1=CC=C(C2=C3C(N(C)C=C3)=NC=C2)O1]",–,–,Inhibition at top concentration of 125 µM (%) [1]: Not measurable due to compound precipitation; IC50 [2]: 7.6 µM
